The nature of series [1]: Pharmacokinetic (PK) study in rats, subcutaneous injection, serum MTX by HPLC. Format: in vivo, Male Sprague Dawley rats. As to conditions: rat. The method, then:
A pharmacokinetic (PK) study was performed in rats, comparing MTX solution control against four different formulations of MVL-encapsulated MTX at a dose level of 10 mg/kg. Male Sprague Dawley rats weighing 280-320 g received subcutaneous injections of either MTX solution or one of the MVL-encapsulated MTX formulations. The injections were made on the left lateral hind limb of each rat using 1 mL syringes fitted with 25G needles. Each treatment group contained 3 rats. Appropriate dilutions with sterile saline solution were performed to provide a dose of 10 mg/kg of MTX per rat, assuming an average rat weight of 300 g (final injection volume of 200 uL). Rats were ordered by pre-dose weight and then randomized into the different treatment groups.
Serum MTX analysis was performed to measure MTX in serum using a liquid-liquid extraction (LLE) HPLC method performed by an Agilent 1200 Series system produced by Agilent Technologies headquartered in Santa Clara, Calif. A 100 μL volume of rat serum was mixed with 300 μL of acetonitrile solution containing 1.1% formic acid (w/v) in a 1.5-mL Eppendorf tube. The deproteinization was carried out by vortexing for 1 minute, followed by centrifugation at 13,000 g for 5 minutes. The entire supernatant was transferred into a 1.5-mL microcentrifuge tube with screw cap. Acetonitrile was cleaned out by mixing 500 μL of chloroform with the supernatant. The tube was vortexed for 1 minute and then centrifuged at 13,000 g for 3 minutes. A 40 μL volume of the top aqueous portion was collected into a 100-μL vial insert for HPLC sample injection.
The HPLC system was equipped with a detector set at 302 nm and a 2.1-mm×250-mm Supelcosil LC-18-S with 5-μm particle size column. The mobile phase consisted of 102 mM sodium phosphate (dibasic), 32.5 mM citric acid, and 10% (v/v) acetonitrile (pH˜6.0). The flow rate was 0.6 mL/min, column temperature 35° C., and injection volume 20 μL. An MTX standard curve was prepared by spiking 6 different concentrations of MTX (22.7-727.1 ng/mL) into MTX-free rat serum. The MTX in each spiked standard was extracted using the same sample preparation method above.
Additional PK studies on Formulations 1 and 2 were performed as above, including some at reduced doses of MTX. The PK parameters from these studies are summarized below. […] The Cavg is the average plasma concentration over the 7 day time period.

For series [2] the following is noted: cited from earlier work.

Read-outs that look alike come from different tables or passages of the source. A value given as a limit tells only on which side of the number the result lay.

Turning to `CN(Cc1cnc2nc(N)nc(N)c2n1)c1ccc(C(=O)N[C@@H](CCC(=O)O)C(=O)O)cc1` [MTX Solution, methotrexate], the “time to drop below LOQ in plasma” value in series [1] (10 mg/kg, FIG. 1) is no more than 24 h. Besides, in series [1] (MTX dose 10 mg/kg), the AUC/Dose is 1.55 µmol·h/L/mg/kg; the Cmax (as a rule, the maximum level reached in the sampled fluid or tissue) came to 14.4 µM; the tmax turned out to be 0.5 h. The “standard AUC” value in series [2] (oral immediate release dosage forms (Hoekstra et al. 2004)) is given as 2466 mcg/L-hr. Moreover, in series [2] (orally administered), the t1/2 is 8 to 10 h and the tmax is 1 to 3 h.

(Values after US10028911B2, “Sustained release formulation of methotrexate as a disease-modifying antirheumatic drug (DMARD) and an anti-cancer agent” (PACIRA PHARMACEUTICALS, INC., priority 2010, dated 2018).)
